According to paper PMC6508583 (Journal of the American Chemical Society, 2019):
In brackets after ≈: the same amount, converted by molar mass. Where two headings read alike, the source gives them in different places.

Experiments:
[1] = test system: E. cloacae; test: Antibacterial activity against reference strains: E. cloacae; assay type: cell-based; details: for Antibacterial activity (MIC) E. cloacae AG290: strain AG290; for MIC: Enterobacter cloacae, read-out: Antibacterial activity (MIC) E. cloacae AG290
[2] = test system: E. coli; test: Antibacterial activity against reference strains: E. coli; details: for Antibacterial activity (MIC) E. coli AG001: strain AG001; for Antibacterial activity (MIC) E. coli AG003: strain AG003 carries the AAC(3) gene; for MIC: Escherichia coli
[3] = test system: MRSA; test: Antibacterial activity against reference strains: MRSA; assay type: cell-based; details: for Antibacterial activity (MIC) MRSA AG038: strain AG038; for Antibacterial activity (MIC) MRSA AG042: strain AG042 carries the AAC(6)’, ANT(4’,4’’) and APH(3’) genes; for MIC: Staphylococcus aureus, MRSA
[4] = test system: A1555G mutant mitochondrial hybrid ribosome; assay type: biochemical, human; details: for Selectivity A1555G: A1555G over wt bacterial ribosome; for IC50 A1555G: in vitro translation inhibition, A1555G mutant mitochondrial hybrid ribosome
[5] = test system: A. baumannii; test: Antibacterial activity against reference strains: A. baumannii; assay type: cell-based; details: strain AG225
[6] = test system: E. coli carrying specific resistance determinants; test: Activity against wild-type and engineered E. coli carrying specific AMEs or RMTs; assay type: cell-based; details: for Activity (MIC) E. coli AG006: strain AG006, WT; for Activity (MIC) E. coli AG007: strain AG007, AAC(3); for Activity (MIC) E. coli AG008: strain AG008, ANT(2’’); for Activity (MIC) E. coli AG009: strain AG009, AAC(6’); for Activity (MIC) E. coli AG036: strain AG036, ANT(4′,4′′); for Activity (MIC) E. coli AG103: strain AG103, armA; for Activity (MIC) E. coli AG105: strain AG105, AAC(2′); for Activity (MIC) E. coli AG166: strain AG166, APH(3′); for MIC: Escherichia coli
[7] = test system: K. pneumoniae; test: Antibacterial activity against reference strains: K. pneumoniae; assay type: cell-based; details: strain AG215
[8] = test system: E coli 70S ribosome (helix 44, A1408); test: Quantitative dimethyl sulfate footprinting of the 70S ribosome; assay type: binding; details: read-out: apparent Kd; DMS footprinting, % protection of N1 of A1408, E. coli 70S ribosome
[9] = test system: Cyt14 hybrid ribosome (decoding A site of the human cytoplasmic ribosome); assay type: biochemical; details: for Selectivity Cyt14: Cyt14 over wt bacterial ribosome; for IC50 Cyt 14: in vitro translation inhibition, Cyt14 hybrid ribosome
[10] = test system: Mit13 hybrid ribosome (decoding A site of the human mitochondrial ribosome); assay type: biochemical; details: for Selectivity Mit 13: Mit13 over wt bacterial ribosome; for IC50 Mit13: in vitro translation inhibition, Mit13 hybrid ribosome
[11] = test system: P. aeruginosa; test: Antibacterial activity against reference strains: P. aeruginosa; details: for Antibacterial activity (MIC) P. aeruginosa AG031: strain AG031 carries the APH(3’) gene
[12] = test system: wild-type bacterial ribosome; test: Cell-free translation assay, wild-type bacterial ribosome; assay type: biochemical; details: in vitro translation inhibition
[13] = test system: E coli; test: Neutropenic mouse thigh infection model; assay type: in vivo; details: dose 3 mg.kg^−1
[14] = test system: NIH 3T3 mouse embryonic fibroblast cells; assay type: cell-based
[15] = test system: Mycobacterium abscessus; test: microbe, parasite or virus in culture; assay type: cell-based; details: Mycobacteroides abscessus
[16] = test system: Mycobacterium tuberculosis clinical isolates; test: microbe, parasite or virus in culture; assay type: cell-based; details: Mycobacterium tuberculosis, read-out: MIC M. tuberculosis clinical isolates
[17] = read-out: Antibacterial activity (MIC) E. coli AG001
[18] = read-out: Antibacterial activity (MIC) E. coli AG003
[19] = read-out: Antibacterial activity (MIC) MRSA AG038
[20] = read-out: Activity (MIC) E. coli AG006
[21] = read-out: Activity (MIC) E. coli AG007
[22] = read-out: Activity (MIC) E. coli AG008
[23] = read-out: Activity (MIC) E. coli AG009
[24] = read-out: Activity (MIC) E. coli AG036
[25] = read-out: Activity (MIC) E. coli AG103
[26] = read-out: Activity (MIC) E. coli AG105
[27] = read-out: Activity (MIC) E. coli AG166

Compound	Antibacterial activity (MIC) E. cloacae AG290 [1]	Antibacterial activity (MIC) E. coli AG001 [2]	Antibacterial activity (MIC) E. coli AG003 [2]	Antibacterial activity (MIC) MRSA AG038 [3]	Antibacterial activity (MIC) MRSA AG042 [3]	Selectivity A1555G [4]	IC50 A1555G [4]	Antibacterial activity (MIC) A. baumannii AG225 [5]	Activity (MIC) E. coli AG006 [6]	Activity (MIC) E. coli AG007 [6]	Activity (MIC) E. coli AG008 [6]	Activity (MIC) E. coli AG009 [6]	Activity (MIC) E. coli AG036 [6]	Activity (MIC) E. coli AG103 [6]	Activity (MIC) E. coli AG105 [6]	Selectivity Cyt14 [9]	IC50 Cyt 14 [9]	Selectivity Mit 13 [10]	IC50 Mit13 [10]	IC50 wt [12]	other results
CCOC1C(CO)OC(OC2C(N)CC(N)C(O)C2OC2OC(CO)C(OC3OC(CN)C(O)C(O)C3N)C2O)C(N)C1O (stereo not drawn) [Compound 3]	8 µg/mL	16 µg/mL	32 µg/mL	8 to 16 µg/mL	8 to 16 µg/mL	1188	95 µg/mL (≈ 148 µM)	16 to 32 µg/mL	8 to 16 µg/mL	16 to 32 µg/mL	8 µg/mL	16 µg/mL	8 to 16 µg/mL	≥64 µg/mL	8 to 16 µg/mL	1100	88 µg/mL (≈ 137 µM)	1075	86 µg/mL (≈ 134 µM)	0.08 µg/mL (≈ 0.124 µM)	Activity (MIC) E. coli AG166 [6]: 64 µg/mL; Antibacterial activity (MIC) K. pneumoniae AG215 [7]: 8 µg/mL; Kd [8]: 1030 ± 200 nM; Antibacterial activity (MIC) P. aeruginosa AG031 [11]: >64 µg/mL; Antibacterial activity (MIC) P. aeruginosa AG220 ([11]; strain AG220 carries the APH(3’) gene): >64 µg/mL
CN[C@@H]1[C@@H](O)[C@@H](O[C@@H]2[C@@H](O)[C@H](O[C@H]3OC(CNCCO)=CC[C@H]3N)[C@@H](N)C[C@H]2NC(=O)[C@@H](O)CCN)OC[C@]1(C)O [Plazomicin, reference compound]	–	–	–	–	–	47	2.8 µg/mL (≈ 4.72 µM)	–	–	–	–	–	–	–	–	6983	419 µg/mL (≈ 707 µM)	833	50 µg/mL (≈ 84.4 µM)	0.06 µg/mL (≈ 0.101 µM)	MIC [1]: 0.5 µg/mL (≈ 0.844 µM); log reduction in colony-forming units (CFUs) compared to vehicle [13]: similar; MIC [2, 17]: 2 µg/mL (≈ 3.37 µM); MIC [2, 18]: 2 to 4 µg/mL (≈ 3.37 to 6.75 µM); MIC [3, 19]: 2 µg/mL (≈ 3.37 µM); MIC [6, 20]: 0.5 to 1 µg/mL (≈ 0.844 to 1.69 µM); MIC [6, 21]: 2 µg/mL (≈ 3.37 µM); MIC [6, 22]: 0.5 to 1 µg/mL (≈ 0.844 to 1.69 µM); MIC [6, 23]: 2 µg/mL (≈ 3.37 µM); MIC [6, 24]: 1 µg/mL (≈ 1.69 µM); MIC [6, 25]: > 128 µg/mL; MIC [6, 26]: 1 to 2 µg/mL (≈ 1.69 to 3.37 µM); MIC [6, 27]: 1 µg/mL (≈ 1.69 µM)
CCSC1C(CO)OC(OC2C(N)CC(N)C(O)C2OC2OC(CO)C(OC3OC(CN)C(O)C(O)C3N)C2O)C(N)C1O (stereo not drawn) [Compound 4, 4’-deoxy-4’-ethylthioparomomycin]	2 to 4 µg/mL	8 µg/mL	8 µg/mL	4 µg/mL	2 to 4 µg/mL	1150	46 µg/mL (≈ 69.7 µM)	4 µg/mL	1 to 2 µg/mL	4 µg/mL	1 µg/mL	4 µg/mL	1 to 2 µg/mL	8 µg/mL	2 to 4 µg/mL	1500	60 µg/mL (≈ 90.9 µM)	2775	111 µg/mL (≈ 168 µM)	0.04 µg/mL (≈ 0.0606 µM)	loss of cell viability [14]: only minimal loss of cell viability; Activity (MIC) E. coli AG166 [6]: 4 µg/mL; Antibacterial activity (MIC) K. pneumoniae AG215 [7]: 2 µg/mL; Antibacterial activity (MIC) P. aeruginosa AG031 [11]: 32 µg/mL
NC[C@@H]1O[C@H](O[C@H]2[C@@H](O)[C@H](O[C@@H]3[C@@H](O)[C@H](N)C[C@H](N)[C@H]3O[C@H]3O[C@H](CO)[C@@H](O)[C@H](O)[C@H]3N)O[C@@H]2CO)[C@H](N)[C@@H](O)[C@@H]1O [Compound 1, paromomycin, reference compound]	–	–	–	–	–	270	5.4 µg/mL (≈ 8.77 µM)	–	–	–	–	–	–	–	–	470	9.4 µg/mL (≈ 15.3 µM)	2500	50 µg/mL (≈ 81.2 µM)	0.02 µg/mL (≈ 0.0325 µM)	MIC [1]: 2 µg/mL (≈ 3.25 µM); MIC [2, 17]: 2 to 4 µg/mL (≈ 3.25 to 6.5 µM); MIC [2, 18]: 8 to 16 µg/mL (≈ 13 to 26 µM); MIC [3, 19]: 4 µg/mL (≈ 6.5 µM); MIC ([3]; read-out: Antibacterial activity (MIC) MRSA AG042): > 256 µg/mL; MIC ([15]; read-out: MIC M. abscessus): 64 µg/mL (≈ 104 µM); MIC ([15]; read-out: MIC M. abscessus, AAC(2’) gene deleted): 16 µg/mL (≈ 26 µM); MIC [6, 20]: 1 to 2 µg/mL (≈ 1.62 to 3.25 µM); MIC [6, 21]: 4 µg/mL (≈ 6.5 µM); MIC [6, 22]: 2 to 4 µg/mL (≈ 3.25 to 6.5 µM); MIC [6, 23]: 4 µg/mL (≈ 6.5 µM); MIC [6, 24]: 32 to 64 µg/mL (≈ 52 to 104 µM); MIC [6, 25]: 4 µg/mL (≈ 6.5 µM); MIC [6, 26]: 2 µg/mL (≈ 3.25 µM); MIC [6, 27]: > 128 µg/mL; Kd [8]: 590 ± 50 nM; MIC [16]: 2 to 4 µg/mL (≈ 3.25 to 6.5 µM)
